# Source: PubChem BioAssay (NCI)
#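 Grown in 96-well plates, cells were treated for 48 hours with each compound at five concentrations. Insufficient inhibition: endpoint recorded as highest concentration tested. TGI: total growth inhibition.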
# Legend:
# Assay in all cases: NCI-60 cell line screen, 48 h
# [1] = test system: NCI/ADR-RES ovarian
# [2] = test system: SR leukemia
# [3] = test system: RXF 393 renal
# [4] = test system: LOX IMVI melanoma
# [5] = test system: NCI-H226 lung
# [6] = test system: OVCAR-5 ovarian
# [7] = test system: EKVX NSCLC
# [8] = test system: MDA-N
# [9] = test system: HS 578T breast
# [10] = test system: M14 melanoma
# [11] = test system: OVCAR-3 ovarian
# [12] = test system: PC-3 prostate
# [13] = test system: NCI-H522 lung
# [14] = test system: OVCAR-8 ovarian
# [15] = test system: MALME-3M melanoma
# [16] = test system: SN12C renal
# [17] = test system: HCT-116 colon
# [18] = test system: HT29 colon
# [19] = test system: SNB-19 CNS
# [20] = test system: CAKI-1 renal
# [21] = test system: HCC-2998 colon
# [22] = test system: MOLT-4 leukemia
# [23] = test system: IGROV1 ovarian
# [24] = test system: KM12 colon
# [25] = test system: NCI-H460 lung
# [26] = test system: SF-295 CNS
# [27] = test system: SK-MEL-2 melanoma
# [28] = test system: HCT-15 colon
# [29] = test system: SK-MEL-5 melanoma
# [30] = test system: SF-539 CNS
# [31] = test system: 786-0 renal
# [32] = test system: CCRF-CEM leukemia
# [33] = test system: BT-549 breast
# [34] = test system: A498 renal
# [35] = test system: DU-145 prostate
# [36] = test system: OVCAR-4 ovarian
# [37] = test system: MDA-MB-435
# [38] = test system: HOP-62 NSCLC
# [39] = test system: SF-268 CNS
# [40] = test system: UO-31 renal
# [41] = test system: SK-OV-3 ovarian
# [42] = test system: U251 CNS
# [43] = test system: NCI-H23 lung
# [44] = test system: TK-10 renal
# [45] = test system: MCF7 breast
# [46] = test system: ACHN renal
# [47] = test system: K-562 leukemia
# [48] = test system: SNB-75 CNS
# [49] = test system: UACC-257 melanoma
# [50] = test system: T-47D breast
# [51] = test system: UACC-62 melanoma
# [52] = test system: MDA-MB-231 breast
# [53] = test system: COLO 205 colon
# [54] = test system: RPMI-8226 leukemia
# [55] = test system: SW-620 colon
# [56] = test system: A549 NSCLC
# [57] = test system: SK-MEL-28 melanoma
# [58] = test system: HOP-92 NSCLC
# [59] = test system: HL-60(TB) leukemia
structure (smiles),measurement,setting,value
CC(=O)NC1C(OC(C)C(=O)NC(C)C(=O)NC(CCC(=O)NCCCCCNc2ccc([N+](=O)[O-])c3[nH]c4ccccc4c(=O)c23)C(N)=O)C(O)C(CO)OC1(C)OCc1ccccc1 (configuration not stated),TGI,[1],> 100 µM
same,TGI,[2],> 100 µM
same,TGI,[3],> 100 µM
same,TGI,[4],> 100 µM
same,TGI,[5],> 100 µM
same,TGI,[6],> 100 µM
same,TGI,[7],> 100 µM
same,TGI,[8],> 100 µM
same,TGI,[9],> 100 µM
same,TGI,[10],> 100 µM
same,TGI,[11],> 100 µM
same,TGI,[12],> 100 µM
same,TGI,[13],> 100 µM
same,TGI,[14],> 100 µM
same,TGI,[15],> 100 µM
same,TGI,[16],> 100 µM
same,TGI,[17],> 100 µM
same,TGI,[18],> 100 µM
same,TGI,[19],> 100 µM
same,TGI,[20],> 100 µM
same,TGI,[21],> 100 µM
same,TGI,[22],> 100 µM
same,TGI,[23],> 100 µM
same,TGI,[24],> 100 µM
same,TGI,[25],> 100 µM
same,TGI,[26],> 100 µM
same,TGI,[27],> 100 µM
same,TGI,[28],> 100 µM
same,TGI,[29],> 100 µM
same,TGI,[30],> 100 µM
same,TGI,[31],> 100 µM
same,TGI,[32],> 100 µM
same,TGI,[33],> 100 µM
same,TGI,[34],> 100 µM
same,TGI,[35],> 100 µM
same,TGI,[36],> 100 µM
same,TGI,[37],> 100 µM
same,TGI,[38],> 100 µM
same,TGI,[39],> 100 µM
same,TGI,[40],> 100 µM
same,TGI,[41],> 100 µM
same,TGI,[42],> 100 µM
same,TGI,[43],> 100 µM
same,TGI,[44],82.1 µM
same,TGI,[45],> 100 µM
same,TGI,[46],> 100 µM
same,TGI,[47],> 100 µM
same,TGI,[48],> 100 µM
same,TGI,[49],> 100 µM
same,TGI,[50],> 100 µM
same,TGI,[51],> 100 µM
same,TGI,[52],> 100 µM
same,TGI,[53],> 100 µM
same,TGI,[54],70.1 µM
same,TGI,[55],> 100 µM
same,TGI,[56],> 100 µM
COC(=O)CCC(=O)c1ccc2c(c1)CCC2,TGI,[1],> 100 µM
same,TGI,[2],> 100 µM
same,TGI,[3],> 100 µM
same,TGI,[4],> 100 µM
same,TGI,[6],> 100 µM
same,TGI,[7],> 100 µM
same,TGI,[8],> 100 µM
same,TGI,[9],> 100 µM
same,TGI,[10],> 100 µM
same,TGI,[11],> 100 µM
same,TGI,[12],> 100 µM
same,TGI,[13],> 100 µM
same,TGI,[14],> 100 µM
same,TGI,[15],> 100 µM
same,TGI,[57],> 100 µM
same,TGI,[17],> 100 µM
same,TGI,[18],> 100 µM
same,TGI,[19],> 100 µM
same,TGI,[20],> 100 µM
same,TGI,[21],> 100 µM
same,TGI,[22],> 100 µM
same,TGI,[23],> 100 µM
same,TGI,[25],> 100 µM
same,TGI,[26],> 100 µM
same,TGI,[27],> 100 µM
same,TGI,[28],> 100 µM
same,TGI,[29],> 100 µM
same,TGI,[30],> 100 µM
same,TGI,[31],> 100 µM
same,TGI,[32],> 100 µM
same,TGI,[34],> 100 µM
same,TGI,[35],> 100 µM
same,TGI,[36],> 100 µM
same,TGI,[37],> 100 µM
same,TGI,[38],> 100 µM
same,TGI,[39],> 100 µM
same,TGI,[58],> 100 µM
same,TGI,[40],> 100 µM
same,TGI,[59],> 100 µM
same,TGI,[41],> 100 µM
same,TGI,[42],> 100 µM
same,TGI,[43],> 100 µM
same,TGI,[44],> 100 µM
same,TGI,[45],> 100 µM
same,TGI,[46],> 100 µM
same,TGI,[47],> 100 µM
same,TGI,[48],> 100 µM
same,TGI,[49],> 100 µM
same,TGI,[50],> 100 µM
same,TGI,[52],> 100 µM
same,TGI,[54],> 100 µM
same,TGI,[55],> 100 µM
same,TGI,[56],> 100 µM
CC(=O)c1nc2ccccc2n1C(C)C(=O)c1ccccc1 (configuration not stated),TGI,[1],> 100 µM
same,TGI,[2],> 100 µM
same,TGI,[3],> 100 µM
same,TGI,[4],> 100 µM
same,TGI,[5],> 100 µM
same,TGI,[7],> 100 µM
same,TGI,[8],> 100 µM
same,TGI,[9],> 100 µM
same,TGI,[10],> 100 µM
same,TGI,[11],> 100 µM
same,TGI,[12],> 100 µM
same,TGI,[13],> 100 µM
same,TGI,[14],> 100 µM
same,TGI,[15],> 100 µM
same,TGI,[57],> 100 µM
same,TGI,[16],> 100 µM
same,TGI,[17],> 100 µM
same,TGI,[18],> 100 µM
same,TGI,[19],> 100 µM
same,TGI,[20],> 100 µM
same,TGI,[22],> 100 µM
same,TGI,[23],> 100 µM
same,TGI,[24],> 100 µM
same,TGI,[25],> 100 µM
same,TGI,[26],> 100 µM
same,TGI,[28],> 100 µM
same,TGI,[30],> 100 µM
same,TGI,[31],> 100 µM
same,TGI,[32],> 100 µM
same,TGI,[33],> 100 µM
same,TGI,[34],> 100 µM
same,TGI,[35],> 100 µM
same,TGI,[36],> 100 µM
same,TGI,[37],> 100 µM
same,TGI,[38],> 100 µM
same,TGI,[39],> 100 µM
same,TGI,[58],> 100 µM
same,TGI,[40],> 100 µM
same,TGI,[59],> 100 µM
same,TGI,[41],> 100 µM
same,TGI,[42],> 100 µM
same,TGI,[43],> 100 µM
same,TGI,[44],> 100 µM
same,TGI,[45],> 100 µM
same,TGI,[47],> 100 µM
same,TGI,[48],> 100 µM
same,TGI,[49],> 100 µM
same,TGI,[51],> 100 µM
same,TGI,[52],> 100 µM
same,TGI,[53],> 100 µM
same,TGI,[54],> 100 µM
same,TGI,[55],> 100 µM
same,TGI,[56],> 100 µM
